{"source": "patent US20090041617A1", "about": "“PURIFIED HYDROGEN PEROXIDE GAS MICROBIAL CONTROL METHODS AND DEVICES” (priority 2007, published 2009)", "key": {"MRSA (ATCC 33592)": {"test_system": "MRSA (ATCC 33592)", "conditions": "for Average CFU/Test carrier (Survivors in the test) / Percent Reduction Compared to Corresponding Natural Die-off / Percent Reduction as Compared to Time Zero Control: PHPG 0.005-0.01 ppm, 35%-40% relative humidity", "text": "(§1) The device was subjected to tests designed and implemented by two accredited laboratories to: (a) measure the output of Purified Hydrogen Peroxide Gas (PHPG); (b) confirm that the output was substantially free of ozone; (c) confirm that the output was substantially free of VOC's; (d) measure the efficacy of PHPG against the Feline Calicivirus (an EPA-approved substitute for noroviruses), Methicillin Resistant Staphylococcus Aureous (MRSA), Vancomyacin Resistant Enterococcus Faecalis (VRE), Clostridium Difficile (C-Diff), Geobacillus Stearothermophilus, (a stable bacteria used by the insurance industry to verify successful microbial remediation), and Aspergillus Niger (a common fungus); and (e) test at a variety of ambient relative humidities including 35% to 40% at 70 to 72 degrees Fahrenheit, 56% to 59% at 81 to 85 degrees Fahrenheit, and 98% at 78 degrees Fahrenheit.\n(§2) In quantitative microbial testing at ATS labs in Eagan, Minn. the following data was collected."}, "VRE (ATCC 51575)": {"test_system": "VRE (ATCC 51575)", "conditions": "for Average CFU/Test carrier (Survivors in the test) / Percent Reduction Compared to Corresponding Natural Die-off / Percent Reduction as Compared to Time Zero Control: PHPG 0.005-0.01 ppm, 35%-40% relative humidity", "text": "as §1, §2"}, "A. niger (ATCC 16404)": {"test_system": "A. niger (ATCC 16404)", "conditions": "for Average CFU/Test carrier (Survivors in the test) / Percent Reduction Compared to Corresponding Natural Die-off / Percent Reduction as Compared to Time Zero Control: PHPG 0.005-0.01 ppm, 35%-40% relative humidity", "text": "as §1, §2"}, "[1]": {"test_system": "Feline Calicivirus (Norovirus substitute)", "conditions": "for Average Virus Infectivity Observed After Exposure / Percent Reduction Compared to Corresponding Natural Die-off / Percent Reduction as Compared to Time Zero Virus Control: PHPG 0.005-0.01 ppm, 35%-40% relative humidity", "text": "as §1, §2"}, "[2]": {"test_system": "C. difficile (ATCC 700792)", "conditions": "for Average CFU/Test carrier (Survivors in the test) / Percent Reduction Compared to Corresponding Natural Die-off / Percent Reduction as Compared to Time Zero Control: PHPG 0.005-0.01 ppm, 35%-40% relative humidity", "text": "as §1, §2"}, "[3]": {"test_system": "Geobacillus Stearothermophilus", "text": "as §1"}, "[4]": {"conditions": "PHPG about 0.005 ppm to about 0.10 ppm in the environment"}}, "note": "Read-outs that look alike come from different tables or passages of the source."}
{"smiles": "OO", "note": "[PHPG, Purified Hydrogen Peroxide Gas]", "values": [{"measurement": "Average CFU/Test carrier (Survivors in the test)", "setting": "MRSA (ATCC 33592); 2 hours", "result": "<1 (no survivors) CFU/Test carrier"}, {"measurement": "Percent Reduction Compared to Corresponding Natural Die-off", "setting": "MRSA (ATCC 33592); 2 hours", "result": ">99.9999", "unit": "%"}, {"measurement": "Percent Reduction as Compared to Time Zero Control", "setting": "MRSA (ATCC 33592); 2 hours", "result": ">99.9999", "unit": "%"}, {"measurement": "Average CFU/Test carrier (Survivors in the test)", "setting": "MRSA (ATCC 33592); 6 hours", "result": "<1 (no survivors) CFU/Test carrier"}, {"measurement": "Percent Reduction Compared to Corresponding Natural Die-off", "setting": "MRSA (ATCC 33592); 6 hours", "result": ">99.9999", "unit": "%"}, {"measurement": "Percent Reduction as Compared to Time Zero Control", "setting": "MRSA (ATCC 33592); 6 hours", "result": ">99.9999", "unit": "%"}, {"measurement": "Average CFU/Test carrier (Survivors in the test)", "setting": "MRSA (ATCC 33592); 24 hours", "result": "<1 (no survivors) CFU/Test carrier"}, {"measurement": "Percent Reduction Compared to Corresponding Natural Die-off", "setting": "MRSA (ATCC 33592); 24 hours", "result": ">99.9999", "unit": "%"}, {"measurement": "Percent Reduction as Compared to Time Zero Control", "setting": "MRSA (ATCC 33592); 24 hours", "result": ">99.9999", "unit": "%"}, {"measurement": "efficacy in words", "setting": "MRSA (ATCC 33592); [4]", "result": "proven effective"}, {"measurement": "Average CFU/Test carrier (Survivors in the test)", "setting": "VRE (ATCC 51575); 2 hours", "result": "<1 (no survivors) CFU/Test carrier"}, {"measurement": "Percent Reduction Compared to Corresponding Natural Die-off", "setting": "VRE (ATCC 51575); 2 hours", "result": ">99.999", "unit": "%"}, {"measurement": "Percent Reduction as Compared to Time Zero Control", "setting": "VRE (ATCC 51575); 2 hours", "result": ">99.9999", "unit": "%"}, {"measurement": "Average CFU/Test carrier (Survivors in the test)", "setting": "VRE (ATCC 51575); 6 hours", "result": "<1 (no survivors) CFU/Test carrier"}, {"measurement": "Percent Reduction Compared to Corresponding Natural Die-off", "setting": "VRE (ATCC 51575); 6 hours", "result": ">99.99", "unit": "%"}, {"measurement": "Percent Reduction as Compared to Time Zero Control", "setting": "VRE (ATCC 51575); 6 hours", "result": ">99.9999", "unit": "%"}, {"measurement": "Average CFU/Test carrier (Survivors in the test)", "setting": "VRE (ATCC 51575); 24 hours", "result": "<1 (no survivors) CFU/Test carrier"}, {"measurement": "Percent Reduction Compared to Corresponding Natural Die-off", "setting": "VRE (ATCC 51575); 24 hours", "result": ">99.9", "unit": "%"}, {"measurement": "Percent Reduction as Compared to Time Zero Control", "setting": "VRE (ATCC 51575); 24 hours", "result": ">99.9999", "unit": "%"}, {"measurement": "efficacy in words", "setting": "VRE (ATCC 51575); [4]", "result": "proven effective"}, {"measurement": "Average CFU/Test carrier (Survivors in the test)", "setting": "A. niger (ATCC 16404); 2 hours", "result": "1.9 × 10^5 CFU/ CFU/Carrier"}, {"measurement": "Percent Reduction Compared to Corresponding Natural Die-off", "setting": "A. niger (ATCC 16404); 2 hours", "result": 13.6, "unit": "%"}, {"measurement": "Percent Reduction as Compared to Time Zero Control", "setting": "A. niger (ATCC 16404); 2 hours", "result": 19.1, "unit": "%"}, {"measurement": "Average CFU/Test carrier (Survivors in the test)", "setting": "A. niger (ATCC 16404); 6 hours", "result": "4.67 × 10^4 CFU/ CFU/Carrier"}, {"measurement": "Percent Reduction Compared to Corresponding Natural Die-off", "setting": "A. niger (ATCC 16404); 6 hours", "result": 81.3, "unit": "%"}, {"measurement": "Percent Reduction as Compared to Time Zero Control", "setting": "A. niger (ATCC 16404); 6 hours", "result": 80.1, "unit": "%"}, {"measurement": "Average CFU/Test carrier (Survivors in the test)", "setting": "A. niger (ATCC 16404); 24 hours", "result": "1.2 × 10^4 CFU/ CFU/Carrier"}, {"measurement": "Percent Reduction Compared to Corresponding Natural Die-off", "setting": "A. niger (ATCC 16404); 24 hours", "result": 90.8, "unit": "%"}, {"measurement": "Percent Reduction as Compared to Time Zero Control", "setting": "A. niger (ATCC 16404); 24 hours", "result": 94.9, "unit": "%"}, {"measurement": "efficacy in words", "setting": "A. niger (ATCC 16404); [4]", "result": "proven effective"}, {"measurement": "efficacy in words", "setting": "[1]; [4]", "result": "proven effective"}, {"measurement": "Average Virus Infectivity Observed After Exposure", "setting": "[1]; exposure 2 hrs", "result": 4.3, "unit": "log10"}, {"measurement": "Percent Reduction Compared to Corresponding Natural Die-off", "setting": "[1]; exposure 2 hrs", "result": 96.8, "unit": "%"}, {"measurement": "Percent Reduction as Compared to Time Zero Virus Control", "setting": "[1]; exposure 2 hrs", "result": 99.5, "unit": "%"}, {"measurement": "Average Virus Infectivity Observed After Exposure", "setting": "[1]; exposure 6 hrs", "result": 2.3, "unit": "log10"}, {"measurement": "Percent Reduction Compared to Corresponding Natural Die-off", "setting": "[1]; exposure 6 hrs", "result": 99.8, "unit": "%"}, {"measurement": "Percent Reduction as Compared to Time Zero Virus Control", "setting": "[1]; exposure 6 hrs", "result": 99.995, "unit": "%"}, {"measurement": "Percent Reduction Compared to Corresponding Natural Die-off", "setting": "[1]; exposure 24 hrs", "result": 99.8, "unit": "%"}, {"measurement": "Percent Reduction as Compared to Time Zero Virus Control", "setting": "[1]; exposure 24 hrs", "result": "≧99.9999%"}, {"measurement": "Average Virus Infectivity Observed After Exposure", "setting": "[1]; exposure 24 hrs, virus detected in only one replicate", "result": "≦0.6 log10"}, {"measurement": "Average CFU/Test carrier (Survivors in the test)", "setting": "[2]; 2 hours", "result": "2.18 × 10^5 CFU/ CFU/Carrier"}, {"measurement": "Percent Reduction Compared to Corresponding Natural Die-off", "setting": "[2]; 2 hours", "result": 9.2, "unit": "%"}, {"measurement": "Percent Reduction as Compared to Time Zero Control", "setting": "[2]; 2 hours", "result": 27.3, "unit": "%"}, {"measurement": "Average CFU/Test carrier (Survivors in the test)", "setting": "[2]; 6 hours", "result": "1.1 × 10^5 CFU/ CFU/Carrier"}, {"measurement": "Percent Reduction Compared to Corresponding Natural Die-off", "setting": "[2]; 6 hours", "result": 60.6, "unit": "%"}, {"measurement": "Percent Reduction as Compared to Time Zero Control", "setting": "[2]; 6 hours", "result": 63.3, "unit": "%"}, {"measurement": "Average CFU/Test carrier (Survivors in the test)", "setting": "[2]; 24 hours", "result": "7.3 × 10^4 CFU/ CFU/Carrier"}, {"measurement": "Percent Reduction Compared to Corresponding Natural Die-off", "setting": "[2]; 24 hours", "result": 70.4, "unit": "%"}, {"measurement": "Percent Reduction as Compared to Time Zero Control", "setting": "[2]; 24 hours", "result": 75.7, "unit": "%"}, {"measurement": "efficacy in words", "setting": "[2]; [4]", "result": "proven effective"}, {"measurement": "efficacy in words", "setting": "[3]; [4]", "result": "proven effective"}, {"measurement": "reduction of the bacteria on inoculated chips", "setting": "[3]; several tests, all cases, within a matter of hours", "result": "significant reduction"}]}
